Format in all cases: functional
Experiment [1] deals with Rattus norvegicus. Put plainly: Antiinflammatory activity in Wistar rat model of acute aseptic inflammation assessed as reduction in paw edema by measuring IL-1beta level at 25 mg/kg, IG preadministered with compound for 1 hrs followed by carrageenan administration and measured after 3 hrs by ELISA (reference value: 3.250 +/- 0.778 pg/ml). The settings on record: time 4 hrs. For orientation: ELISA stands for enzyme-linked immunosorbent assay.

The test system of experiment [2] is Rattus norvegicus. Put plainly: Antiinflammatory activity in Wistar rat model of acute aseptic inflammation assessed as reduction in paw edema by measuring COX-2 level at 25 mg/kg, IG preadministered with compound for 1 hrs followed by carrageenan administration and measured after 3 hrs by ELISA (reference value: 15.00 +/- 4.243 ng/ml). The settings on record: time 4 hrs.

In experiment [3] the test system is Rattus norvegicus. Put plainly: Antiinflammatory activity in Wistar rat model of acute aseptic inflammation assessed as reduction in paw edema by measuring eNOS level at 25 mg/kg, IG preadministered with compound for 1 hrs followed by carrageenan administration and measured after 3 hrs by ELISA (reference value: 8.150 +/- 6.576 pg/ml). The settings on record: time 4 hrs.

Experiment [4] relates to Rattus norvegicus. Put plainly: Antiinflammatory activity in carrageenan induced Wistar rat model of acute aseptic inflammation assessed as healthy paw volume at 25 mg/kg, IG preadministered with compound for 1 hrs followed by carrageenan administration and measured after 3 hrs by water displacement plethysmometer (reference value: 1.20 +/- 0.06 ml). The settings on record: time 4 hrs.

In experiment [5] the test system is Rattus norvegicus. Put plainly: Antiinflammatory activity in carrageenan induced Wistar rat model of acute aseptic inflammation assessed as edema paw volume at 25 mg/kg, IG preadministered with compound for 1 hrs followed by carrageenan administration and measured after 3 hrs by water displacement plethysmometer (reference value: 2.48 +/- 0.09 ml). Conditions: time 4 hrs.

In experiment [6] the test system is Rattus norvegicus. Description: Antiinflammatory activity in Wistar rat model of acute aseptic inflammation assessed as reduction in paw edema by measuring neutrophils level at 25 mg/kg, IG preadministered with compound for 1 hrs followed by carrageenan administration and measured after 3 hrs (reference value: 4.100 +/- 0.424 10^3/ml). The settings on record: time 4 hrs.

Experiment [7] deals with Rattus norvegicus. Description: Antiinflammatory activity in Wistar rat model of acute aseptic inflammation assessed as reduction in paw edema by measuring C-reactive protein level at 25 mg/kg, IG preadministered with compound for 1 hrs followed by carrageenan administration and measured after 3 hrs by ELISA (reference value: 10.64 +/- 1.223 ng/ml). Conditions: time 4 hrs.

For experiment [8], the system named is Rattus norvegicus. Description: Antiinflammatory activity in Wistar rat model of acute aseptic inflammation assessed as reduction in paw edema by measuring nitrotyrosine level at 25 mg/kg, IG preadministered with compound for 1 hrs followed by carrageenan administration and measured after 3 hrs by ELISA (reference value: 16.45 +/- 3.748 nM/ml). Conditions: time 4 hrs.

For experiment [9], the system named is Rattus norvegicus. Put plainly: Antiinflammatory activity in Wistar rat model of acute aseptic inflammation assessed as inhibition of carrageenan-induced exudative inflammation at 25 mg/kg, IG preadministered with compound for 1 hrs followed by carrageenan administration and measured after 3 hrs by water displacement plethysmometer relative to control. Conditions: po, time 4 hrs.

The test system of experiment [10] is Rattus norvegicus. Description: Antiinflammatory activity in carrageenan induced Wistar rat model of acute aseptic inflammation assessed as edema paw volume at 25 mg/kg, IG preadministered with compound for 1 hrs followed by carrageenan administration and measured after 3 hrs by water displacement plethysmometer (reference value: 2.23 +/- 0.13 ml). Conditions: time 4 hrs.

Experiment [11] concerns Rattus norvegicus. Description: Antiinflammatory activity in carrageenan induced Wistar rat model of acute aseptic inflammation assessed as healthy paw volume at 25 mg/kg, IG preadministered with compound for 1 hrs followed by carrageenan administration and measured after 3 hrs by water displacement plethysmometer (reference value: 1.38 +/- 0.06 ml). Conditions: time 4 hrs.

The subject of experiment [12] is Rattus norvegicus. Put plainly: Antiinflammatory activity in Wistar rat model of acute aseptic inflammation assessed as decrease in nitrotyrosine level at 25 mg/kg, IG preadministered with compound for 1 hrs followed by carrageenan administration and measured after 3 hrs by ELISA relative to control. The settings on record: time 4 hrs. On the set-up: scale not given: the % may be the effect or the level left.

The test system of experiment [13] is Rattus norvegicus. Put plainly: Antiinflammatory activity in Wistar rat model of acute aseptic inflammation assessed as increase in eNOS level at 25 mg/kg, IG preadministered with compound for 1 hrs followed by carrageenan administration and measured after 3 hrs by ELISA relative to control. Conditions: time 4 hrs.

Activity and inhibition in vivo data for 16 molecules are collected here from ChEMBL document CHEMBL5543080, “5+1-Heterocyclization as preparative approach for carboxy-containing triazolo[1,5-c]quinazolines with anti-inflammatory activity” (2024).

For the molecule `CCOC(=O)c1nc2n(n1)C(c1ccc(C(=O)O)cc1)Nc1ccccc1-2` (stereo not drawn), the Activity is 0.253 pg/mL with Rattus norvegicus [1]; 3.033 ng/mL with Rattus norvegicus [2]; 39.9 pg/mL in the experiment with Rattus norvegicus [3]; 1.45 mL in the experiment with Rattus norvegicus [4]; 2.05 mL with Rattus norvegicus [5]; 1.667 10^3/ml in the experiment on Rattus norvegicus [6]. The Activity in the experiment with Rattus norvegicus [7] amounted to 2.48 ng/mL; in the experiment with Rattus norvegicus [8] it was 5.367 nM/ml. Further, the inhibition in vivo at 25 mg/kg with Rattus norvegicus [9] stood at 52.7%.

Turning to `CCOC(=O)c1ccc(-c2nc3n(n2)C(c2ccc(C(=O)O)cc2)Nc2ccccc2-3)cc1` (stereo not drawn), the Activity in the experiment on Rattus norvegicus [1] was 0.87 pg/mL; in the experiment on Rattus norvegicus [2], 4.367 ng/mL; in the experiment on Rattus norvegicus [3] it was 14.43 pg/mL; in the experiment with Rattus norvegicus [4], 1.38 mL; in the experiment on Rattus norvegicus [5], 2.37 mL; in the experiment with Rattus norvegicus [6] it was 2.533 10^3/ml. For the same molecule, the Activity with Rattus norvegicus [7] is 5.8 ng/mL; with Rattus norvegicus [8], 11.37 nM/ml. Further, the inhibition in vivo at 25 mg/kg in the experiment on Rattus norvegicus [9] stood at 21.9%.

With `CCOC(=O)c1nc2n(n1)C1(CCC(=O)O)CCC(=O)N1c1ccccc1-2` (stereo not drawn), the Activity in the experiment on Rattus norvegicus [10] stood at 2.03 mL; with Rattus norvegicus [11] it was 1.28 mL. Also, in the experiment with Rattus norvegicus [9], the inhibition in vivo at 25 mg/kg was 12.2%.

Consider `O=C(O)C1Nc2ccccc2-c2nc(-c3ccccc3)nn21` (stereo not drawn), for which the Activity with Rattus norvegicus [10] was determined as 2.03 mL; with Rattus norvegicus [11], 1.28 mL. In the experiment with Rattus norvegicus [9], the inhibition in vivo at 25 mg/kg worked out at 12.2%.

`O=C1CCC2(C(=O)O)N1c1ccccc1-c1nc(-c3ccccc3)nn12` (stereo not drawn): the Activity in the experiment with Rattus norvegicus [10] came to 2.19 mL; with Rattus norvegicus [11], 1.39 mL. Also, in the experiment on Rattus norvegicus [9], the inhibition in vivo at 25 mg/kg was found to be 6.22%.

For `CCOC(=O)c1nc2n(n1)C(c1ccc(O)c(C(=O)O)c1)Nc1ccccc1-2` (stereo not drawn), the Activity in the experiment on Rattus norvegicus [1] was 2.633 pg/mL; in the experiment on Rattus norvegicus [2] it was 3.7 ng/mL; in the experiment on Rattus norvegicus [3], 35.23 pg/mL; in the experiment with Rattus norvegicus [4], 1.34 mL; in the experiment with Rattus norvegicus [5] it was 2.03 mL; in the experiment with Rattus norvegicus [6], 2.133 10^3/ml. In addition, the Activity was 3.183 ng/mL in the experiment on Rattus norvegicus [7] and 5.6 nM/ml with Rattus norvegicus [8]. Moreover, the inhibition in vivo at 25 mg/kg with Rattus norvegicus [9] was 45.8%.

Regarding `O=C(O)CCC12CCC(=O)N1c1ccccc1-c1nc(-c3ccccc3)nn12` (stereo not drawn), the Activity in the experiment with Rattus norvegicus [10] was found to be 2.25 mL; with Rattus norvegicus [11] it was 1.41 mL. In the experiment on Rattus norvegicus [9], the inhibition in vivo at 25 mg/kg was determined as 0.94%.

For the molecule `CCOC(=O)C1(C)Nc2ccccc2-c2nc(-c3ccccc3)nn21` (stereo not drawn), the Activity was determined as 2.03 mL with Rattus norvegicus [10] and 1.39 mL in the experiment on Rattus norvegicus [11]. In the experiment with Rattus norvegicus [9], the inhibition in vivo at 25 mg/kg worked out at 24.3%.

Take `CCOC(=O)c1ccc(-c2nc3n(n2)C(c2ccc(C(=O)O)c(O)c2)Nc2ccccc2-3)cc1` (stereo not drawn): the Activity in the experiment on Rattus norvegicus [4] was found to be 1.39 mL; in the experiment on Rattus norvegicus [5], 2.38 mL. The inhibition in vivo at 25 mg/kg in the experiment on Rattus norvegicus [9] came to 18.3%.

On to `CCOC(=O)CC1(C)Nc2ccccc2-c2nc(-c3ccc(OC)cc3)nn21` (stereo not drawn), for which the results for the Activity in the experiment on Rattus norvegicus [10] and with Rattus norvegicus [11] were 2.12 mL and 1.33 mL, respectively. Besides, in the experiment with Rattus norvegicus [9], the inhibition in vivo at 25 mg/kg was 7.27%.

On to `CCOC(=O)c1ccc(-c2nc3n(n2)C2(C(=O)O)CCC(=O)N2c2ccccc2-3)cc1` (stereo not drawn), for which the results for the Activity in the experiment with Rattus norvegicus [10] and with Rattus norvegicus [11] were 2.23 mL and 1.43 mL, respectively. Moreover, in the experiment on Rattus norvegicus [9], the inhibition in vivo at 25 mg/kg amounted to 5.75%.

For the molecule `CCOC(=O)c1ccc(-c2nc3n(n2)C(c2cccc(C(=O)O)c2)Nc2ccccc2-3)cc1` (stereo not drawn), the Activity was 0.613 pg/mL with Rattus norvegicus [1]; 3.8 ng/mL with Rattus norvegicus [2]; 28.03 pg/mL with Rattus norvegicus [3]; 1.36 mL in the experiment with Rattus norvegicus [4]; 2.24 mL in the experiment on Rattus norvegicus [5]; 2.4 10^3/ml in the experiment with Rattus norvegicus [6]. Also, the Activity with Rattus norvegicus [7] was 4.233 ng/mL; in the experiment on Rattus norvegicus [8] it was 6.433 nM/ml. In the experiment on Rattus norvegicus [9], the inhibition in vivo at 25 mg/kg was determined as 31%.

As for `O=C([O-])Cc1ccccc1Nc1c(Cl)cccc1Cl.[Na+]` [DICLOFENAC SODIUM], the Activity was 1.27 pg/mL in the experiment on Rattus norvegicus [1]; 1.84 mL in the experiment on Rattus norvegicus [10]; 9.785 ng/mL with Rattus norvegicus [2]; 1.55 mL in the experiment on Rattus norvegicus [11]; 8.43 pg/mL with Rattus norvegicus [3]; 21.42% in the experiment on Rattus norvegicus [12]. Moreover, the Activity was 2.52 10^3/ml in the experiment with Rattus norvegicus [6], 4.245 ng/mL in the experiment on Rattus norvegicus [7], 17.6 nM/ml with Rattus norvegicus [8] and 18.07% in the experiment on Rattus norvegicus [13]. The inhibition in vivo at 25 mg/kg in the experiment with Rattus norvegicus [9] is 69.8%.

Regarding `O=C(O)c1ccc(C2Nc3ccccc3-c3nc(-c4ccccc4)nn32)cc1` (stereo not drawn), the figures for the Activity in the experiment with Rattus norvegicus [4] and with Rattus norvegicus [5] were 1.28 mL and 2.35 mL, respectively. In the experiment on Rattus norvegicus [9], the inhibition in vivo at 25 mg/kg stood at 16.1%.

Take `O=C1c2ccccc2C2N1c1ccccc1-c1nc(-c3ccccc3)nn12` (stereo not drawn): the Activity came out at 1.99 mL in the experiment with Rattus norvegicus [10] and 1.25 mL with Rattus norvegicus [11]. For the same molecule, in the experiment with Rattus norvegicus [9], the inhibition in vivo at 25 mg/kg is 12.5%.

Consider `O=C(O)c1cc(C2Nc3ccccc3-c3nc(-c4ccccc4)nn32)ccc1O` (stereo not drawn), for which the Activity was 0.427 pg/mL in the experiment with Rattus norvegicus [1]; 11.27 ng/mL with Rattus norvegicus [2]; 25.97 pg/mL with Rattus norvegicus [3]; 1.28 mL in the experiment with Rattus norvegicus [4]; 2.13 mL with Rattus norvegicus [5]; 30.88% in the experiment with Rattus norvegicus [12]. Besides, the Activity in the experiment on Rattus norvegicus [6] is 2.433 10^3/ml; in the experiment with Rattus norvegicus [7], 5.267 ng/mL; with Rattus norvegicus [8], 10.67 nM/ml; with Rattus norvegicus [13], 77.06%. The inhibition in vivo at 25 mg/kg in the experiment with Rattus norvegicus [9] was found to be 33.1%.

One may read the inhibition in vivo as the relative decrease from the control value, in per cent.
